Experimental data as given in patent publication US20190269596A1, “COSMETIC USE AND METHOD FOR IMPROVING PHYSIOLOGICAL FUNCTIONS OF THE SKIN BY INCREASING THE EXPRESSION OF UBIAD1” (ISP Investments LLC, priority 2016, published 2019).
Where no end group is shown, it is not given here.

Columns and labels:
Format in all cases: cell-based, human
keratinocytes [1] = test: Cellular ROS measurement with CellROX green in keratinocytes exposed to cumene hydroperoxide; conditions: keratinocytes exposed 1 hour to 200 μM cumene hydroperoxide, peptide-treated
Method: (A) Cellular ROS measurement in keratinocyte exposed 1 hour to 200 μM cumene hydroperoxide using the CellIROX green assay (×20 objective lens, scale bar=31 μm).
(§1) (B) CellROX quantification graph with One-Way Analysis of Variance, displaying confidence interval means diamonds (green). The line across each diamond represents the group mean. The vertical span of each diamond represents the 95% confidence interval for each group. Grand sample mean is represented by a horizontal black line.
(§2) Primary antibodies used were anti-Ubiad1 (sc-377013, Santa Cruz Biotechnology, Heidelberg, Gennany), anti-Giantin (ab24586, Abcamn, Cambridge, UK), anti-3-Nitrotyrosine (ab61392, Abcam). Alexa Fluor® coupled secondary antibodies were used (Molecular Probes, Eugene, Oreg., USA). Alexa Fluor® 594 Phalloidin probe were used for F-actin detection (A12381, molecular Probes). CellROX Green probe was used for monitoring intracellular ROS (C10444, molecular Probes). C11-BODIPY (581/591) was used for monitoring lipid peroxidation (C10445, Molecular Probes). […]
(§3) All experiments have been repeated, the quantification of the fluorescence was performed by measuring the fluorescent intensity of the staining, which was normalized by cell area. Lipid peroxidation in cells was quantified according to manufacturer guideline with the ratios of the signal from the 590 to 510 channels. […]

keratinocytes [2] = test: Transmission electron microscopy of peptide-treated keratinocytes; conditions: cultured keratinocytes, peptide 1 tLM, 48 hours
Method: (§4) Normal human epithelial keratinocytes were isolated from skin obtained from plastic surgery of healthy females who had given written informed consent. Keratinocytes were cultured in keratinocyte serum free medium, with provided human recombinant epidermal growth factor and bovine pituitary extract (Gibco, Auckland, NZ), and 0.1 mg/ml Primocin™ (Invivogen, San Diego, Calif., USA).
Cultured keratinocytes, treated with the peptide at 1 tLM concentration for 48 hours were fixed in Karnovsky's solution (Emsdiasum, Hatfield, Pa., USA) for 1 h at room temperature, and left for 12 h at 4° C. Cells were then carefully scrapped off the petridish, pelleted with a brief centrifugation, and washed with 0.1 M sodium cacodylate buffer. Pellets were routinely osmicated, dehydrated in a graded series of ethanol, and infiltrated with; and embedded in, a low viscocity epon-epoxy resin. Ultrathin sections of silver-gray interference color were cut and double-stained with uranyl acetate and lead citrate and then examined in a Zeiss 10 transmission electron microscope. Microphotographs were taken with a Gatan digital camera (Gatan, Pleasanton, Calif., USA).

Ubiad1 [3] = test: Immunoblotting of Ubiad1 in keratinocytes; conditions: skin keratinocytes, 1 μM (1%) Ubiad1 inducer peptide
Method: as §4
Keratinocytes were lysed in RIPA buffer (Thermo Scientific, Rockford, Ill., USA), containing protease inhibitor cocktail and EDTA (Thermo Scientific). The protein concentration was determined using the BCA Protein Assay Kit (Thermo Scientific) and equal amounts of total protein were loaded on a 4 to 12% NuPAGE Bis-Tris Gel (Invitrogen) and transferred onto a nitrocellulose membranes using the iBlot dry blotting system (Invitrogen). Non specific binding sites were blocked, and membranes were then labeled with appropriate antibodies and developed using the SuperSignal West Femto Maximum Sensitivity Substrate kit (Thermo Scientific).

Ubiad1 [4] = test: qPCR of Ubiad1 mRNA expression in keratinocytes; conditions: skin keratinocytes, 1 μM (1%) Ubiad1 inducer peptide
Method: as §4
Total RNA was extracted using mirVana miRNA isolation kit according to the manufacturer's instructions (Ambion, Austin, Tex., USA). Total RNA was reverse transcribed with the high capacity cDNA reverse transcription kit (Applied Biosystems, Branchburg, N.J., USA). Real-time polymerase chain reaction was performed according to the Taqman method, using the TaqMan Universal PCR Master Mix (Applied Biosystems) with the StepOnePlus Real-time PCR System (Applied Biosystems). Relative expression levels of each target gene were calculated according to the delta-delta-CT method.

keratinocytes [5] = test: Lipid peroxidation (C11-BODIPY) in keratinocytes exposed to cumene hydroperoxide; conditions: keratinocytes exposed 1 hour to 200 μM cumene hydroperoxide, peptide-treated
Method: (C) Lipid peroxidation in keratinocyte exposed 1 hour to 200 μM cumene hydroperoxide (reduced BODIPY in red; oxidized BODIPY in green) (×20 objective lens, scale bar=31 μm).
as §1, with “(D) Lipid peroxidation” for “(B) CellROX”
as §2, §3

**Q.** For “Ala-Val-Leu-Ala-Gly-NH2 (AVLAG-NH2) [Ubiad1 inducer peptide, artificially synthesized Ubiad1 inducer peptide]”, which “resistance to ROS accumulation” value (keratinocytes [1]) is on record?
**A.** more resistant to ROS accumulation

**Q.** What about the “cell morphology: mitochondrial and Golgi content of the cells” value (keratinocytes [2]) of the same substance?
**A.** large scale increase in the mitochondrial and Golgi content of the cells

**Q.** What about the “increase of expression of Ubiad1 measured by immunoblotting” value (Ubiad1 [3]) of the same substance?
**A.** +53%

**Q.** And the “increase of expression of Ubiad1 measured by qPCR” value (Ubiad1 [4])?
**A.** +102%

**Q.** And the “resistance to lipid peroxidation” value (keratinocytes [5])?
**A.** more resistant
